Data published in BindingDB's records for patent US12084420 (Volastra Therapeutics, 2024).
pIC50: −log10 of the molar value.

Molecular target: T1, Kinesin-like protein KIF18A (Homo sapiens, UniProt Q8NI77)
T1 sequence (Q8NI77 whole entry): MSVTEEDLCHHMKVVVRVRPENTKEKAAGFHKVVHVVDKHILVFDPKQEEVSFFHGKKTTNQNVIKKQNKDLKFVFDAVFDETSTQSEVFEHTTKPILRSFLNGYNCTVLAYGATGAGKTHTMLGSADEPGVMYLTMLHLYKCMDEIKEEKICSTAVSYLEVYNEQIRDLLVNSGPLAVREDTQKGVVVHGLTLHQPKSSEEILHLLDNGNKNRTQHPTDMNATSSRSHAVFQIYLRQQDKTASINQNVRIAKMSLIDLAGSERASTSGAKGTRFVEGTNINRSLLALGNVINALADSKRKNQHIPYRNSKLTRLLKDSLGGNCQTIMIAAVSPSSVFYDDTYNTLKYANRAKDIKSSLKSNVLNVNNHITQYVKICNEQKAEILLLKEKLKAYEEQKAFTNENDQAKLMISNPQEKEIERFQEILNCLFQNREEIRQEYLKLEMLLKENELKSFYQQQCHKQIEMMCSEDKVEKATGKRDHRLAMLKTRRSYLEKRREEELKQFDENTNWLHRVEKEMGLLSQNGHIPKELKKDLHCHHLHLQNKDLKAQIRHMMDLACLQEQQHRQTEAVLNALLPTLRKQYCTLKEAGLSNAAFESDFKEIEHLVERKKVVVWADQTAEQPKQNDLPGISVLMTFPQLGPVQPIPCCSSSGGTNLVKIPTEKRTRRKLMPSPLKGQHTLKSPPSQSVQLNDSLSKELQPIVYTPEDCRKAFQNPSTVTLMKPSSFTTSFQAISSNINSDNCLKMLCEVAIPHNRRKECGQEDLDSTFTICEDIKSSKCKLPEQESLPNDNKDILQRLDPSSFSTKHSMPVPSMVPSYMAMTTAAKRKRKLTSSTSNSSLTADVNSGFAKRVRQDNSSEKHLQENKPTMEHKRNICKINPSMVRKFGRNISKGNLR
Assay: Inhibition of KIF18A Microtubule-Dependent ATPase Activity
Description: Table 9: Test compounds were plated in a 3× dilution scheme in a 384-well plate. […] After incubation at room temperature for 30 min, 2.5 μL of microtubule mix was added [0.2 mg/mL pre-formed microtubules, 2.0 mM ATP in assay buffer], the plate was centrifuged for 30 s and then incubated at 28° C. for 60 min. 5 μL of Promega ADP-Glo Max R1 was added, the plate was centrifuged for 30 s, and the mixture incubated for 4 h at room temperature. 10 μL of Promega ADP-Glo Max R2 was added, the plate centrifuged for 30 s, and incubated for 60 min at room temperature. Luminescence was measured with an Envision plate reader, and % Inhibition was calculated for each well as: ([max−min]−[test−min])/[max−min]. IC50 values were calculated from concentration vs. % Inhibition data via a four-parameter variable slope model.

Row | SMILES | pIC50
1 | Cn1nc(S(=O)(=O)NC(C)(C)C)cc1C(=O)N1CC2(CCCCC2)c2cc(NS(C)(=O)=O)ccc21 [US12084420, Compound 59] | 6.00
2 | O=C(c1cccc(S(=O)(=O)N2CCC(F)(F)CC2)c1)N1CC2(CCCC2)c2cc(NS(=O)(=O)CCO)ccc21 [US12084420, Compound 27] | 7.08
3 | CC(C)(C)NS(=O)(=O)c1csc(C(=O)N2CC3(CCCCC3)c3cc(NS(C)(=O)=O)ccc32)c1 [US12084420, Compound 147] | 7.37
4 | CC(C)(C)NS(=O)(=O)c1cc(C(=O)N2CC3(CCC4(CC4)CC3)c3cc(NS(C)(=O)=O)ccc32)co1 [US12084420, Compound 319] | 5.92
5 | CS(=O)(=O)Nc1ccc2c(c1)C1(CCC3(CC3)CC1)CN2C(=O)c1cccc(/C=N/N2CCCCC2)c1 [US12084420, Compound 318] | 6.03

The next compounds have a higher pIC50 than those just listed; values first:

Row | pIC50 | SMILES
6 | 7.68 | CS(=O)(=O)Nc1ccc2c(c1)C1(CCC3(CC3)CC1)CN2C(=O)c1cccc(S(=O)(=O)N2CCC(C(F)F)C2)c1 (configuration not stated) [US12084420, Compound 247]
7 | 7.80 | CCC(C)(C)NS(=O)(=O)c1cccc(C(=O)N2CC3(CCC4(CC4)CC3)c3cc(NS(C)(=O)=O)ccc32)c1 [US12084420, Compound 266]
8 | 7.80 | CC(C)(CO)NS(=O)(=O)c1cccc(C(=O)N2CC3(CCC4(CC4)CC3)c3cc(NS(C)(=O)=O)ccc32)c1 [US12084420, Compound 220]
9 | 7.89 | CC(C)(C)NS(=O)(=O)c1cccc(C(=O)N2CC3(CCC4(CC4)CC3)c3cc(NS(=O)(=O)CCF)ccc32)c1 [US12084420, Compound 365]
10 | 7.92 | C=C1CCC1NS(=O)(=O)c1cccc(C(=O)N2CC3(CCC4(CC4)CC3)c3cc(NS(C)(=O)=O)ccc32)c1 (configuration not stated) [US12084420, Compound 233]
11 | 8.00 | CS(=O)(=O)Nc1ccc2c(c1)C1(CCC3(CC3)CC1)CN2C(=O)c1cccc(S(=O)(=O)NC2CC3CC3C2)c1 (configuration not stated) [US12084420, Compound 254]
12 | 8.06 | CC(C)(C)NS(=O)(=O)c1cc(C(=O)N2CC3(CCCCC3)c3cc(NS(C)(=O)=O)ccc32)cs1 [US12084420, Compound 231]
